Like-named read-outs stand apart in the source and are kept apart here.
Assays:
[1] = test system: TMD8 (BTK-C481S) mutant cells; assay: Proliferation inhibition of TMD8 (BTK-C481S) mutant cells (CCK-8); format: cell-based; settings: Homo sapiens
Description: Cell plating: TMD8 (BTK-C481S) mutant cells in the logarithmic growth phase were taken, centrifuged, and an appropriate amount of complete medium was added to obtain a single-cell suspension. Cell counting was carried out with a hemocytometer, and a cell suspension of 1.5×10^5 cells/mL was prepared. 100 μL of cell suspension per well was inoculated in a 96-well culture plate, and cultured in a CO2 cell incubator for 24 hours.
The plates were shaken well, placed in a CO2 cell incubator, and continued to incubate for 72h.
CCK-8 detection: 72 hours after administration, 10% CCK-8 solution was added to each well. The plates were placed in a CO2 cell incubator, and incubated for 1-4 hours. The absorbance of each well was measured at 450 nm using a microplate reader.

[2] = Caco-2 membrane permeability and efflux test; format: in vitro ADME; settings: human; for Papp A→B at 90 min: Caco-2, A-B; for Papp A→B at 90 min / Papp B→A at 90 min: Caco-2 monolayer, 37° C.; for Papp B→A at 90 min: Caco-2, B-A; for efflux ratio at 90 min: Caco-2, read-out: Papp(B-A)/Papp(A-B)
Description: • 1) Caco-2 cells in the logarithmic growth phase were taken, digested and centrifuged and the cell concentration was adjusted to 4×10^5 cells/mL with MEM complete medium. • 2) 0.5 mL of cell suspension was added to the apical side (AP side) and 1.5 mL MEM cell complete medium was added to the basal side (BL side) of the Transwell plate, respectively. • 3) Culture in a cell constant temperature incubator, change the culture medium every two days, and change the medium every day after one week of culture. • 4) After about 21 days, the resistance value of the formed continuous monolayer film is greater than 100 Ω·cm^2, and the transport experiment is carried out within 3-5 days. • 5) The test compound solution was added to the AP side as the donor solution (Donor), and 1.5 mL of the receiver solution (Receiver) was added to the basal side (BL side). After the culture plate was placed in an incubator at 37° C. for 90 minutes, the AP side was separated from the BL side to terminate the reaction. • 6) Donor or Receiver samples were diluted with 0.4% DMSO in HBSS, and then mixed with acetonitrile. The LC conditions were as follows: mobile phase A: H2O—0.025% FA-1 mM NH4OAC, B: MeOH-0.025% FA-1 mM NH4OAC. Column: ACQUITY UPLC BEH_C18 ([…], 1.7 μm). Flow rate 0.60 mL/min. Gradient: 0.2 min 2% B, 0.6 min 98% B, 1.3 min 98% B, 1.31 min 2% B, 1.8 min stop. • 7) Calculation formula: Papp=(VA/(area×time))×([drug]receiver/([drug]donor)×dilution factor)
where VA is the volume in the receiving chamber, area is the surface area of the membrane, and time is the total transport time in seconds.
Drug molecules cross the single cell layer or via the cell gap from the apical side (AP side) to the basolateral side (BL side) of the Caco-2 monolayer are A to B, and vice versa are B to A. The efflux ratio: Papp(B−A)/Papp(A−B).

BTK-C481S mutant protein = biological target: T1, BTK-C481S mutant protein (Homo sapiens, UniProt Q06187, C481S); assay: Western blot assay for degradation of BTK-C481S mutant protein in TMD8 (BTK-C481S) cells; format: cell-based; settings: 24 hours of drug treatment, GAPDH internal reference
T1 construct: The TMD8 (BTK-C481S) mutant cell line was cultured in RPMI-1640 medium; endogenous in cells; host or cells: TMD8 (BTK-C481S) mutant cell line
T1 sequence (Q06187 whole entry C481S): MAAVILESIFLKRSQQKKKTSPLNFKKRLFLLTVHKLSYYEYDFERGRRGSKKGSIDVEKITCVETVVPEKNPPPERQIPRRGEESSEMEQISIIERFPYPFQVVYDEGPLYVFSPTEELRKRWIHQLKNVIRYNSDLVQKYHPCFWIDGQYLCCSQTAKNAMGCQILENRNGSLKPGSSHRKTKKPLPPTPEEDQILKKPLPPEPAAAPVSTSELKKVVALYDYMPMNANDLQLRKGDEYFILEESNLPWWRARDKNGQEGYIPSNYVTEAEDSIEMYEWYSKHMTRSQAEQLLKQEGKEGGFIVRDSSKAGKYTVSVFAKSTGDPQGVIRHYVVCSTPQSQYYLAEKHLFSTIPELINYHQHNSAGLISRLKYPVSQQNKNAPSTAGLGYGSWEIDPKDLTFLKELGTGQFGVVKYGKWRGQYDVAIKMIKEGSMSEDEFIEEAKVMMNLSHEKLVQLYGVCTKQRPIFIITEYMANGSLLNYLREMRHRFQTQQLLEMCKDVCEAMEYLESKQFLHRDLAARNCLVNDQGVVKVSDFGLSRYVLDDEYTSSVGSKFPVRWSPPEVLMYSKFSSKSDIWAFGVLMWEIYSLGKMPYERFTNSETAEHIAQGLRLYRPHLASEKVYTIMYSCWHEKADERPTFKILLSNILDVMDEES
Description: (§1) The TMD8 (BTK-C481S) mutant cell line was cultured in RPMI-1640 medium containing 20% fetal bovine serum in an incubator at 37° C., 5% CO2, and saturated humidity. After the cells grew to the logarithmic growth phase, 5×10^6 cells per well were seeded in a 6-well culture plate, and a DMSO control group and a compound test group were set.
(§2) After 24 hours of drug treatment, the cells were collected, added pre-cooled cell lysate, and lysed on ice for 45 min. After the cells were completely lysed, they were centrifuged, and the supernatant was taken and stored in an ice bath. The protein concentration was determined by Bradford protein concentration assay kit (detergent compatible type), and protein samples were prepared. After the proteins were separated by SDS-PAGE gel electrophoresis, they were transferred to PVDF membranes by wet method and blocked with 5% BSA solution at room temperature for 1 h. Diluted rabbit anti-human BTK and GAPDH were added according to the experimental requirements, and incubated overnight at 4° C. After washing the membrane with TBST, horseradish peroxidase-labeled goat anti-rabbit IgG secondary antibody dilution was added and incubated at room temperature for 1 h. After washing the membrane with TBST, the ECL luminescent solution was added in the gel imager for development and imaging. […]

OCI-LY10 tumor = assay: Anti-tumor effect in mouse OCI-LY10 tumor model; format: in vivo; settings: SCID mice, OCI-LY10 subcutaneous, oral 100 mg/kg, twice a day, 14 days; rate=[1−(Day14−Day0)/Day0]*100%
Description: OCI-LY10 cells were cultured in RPMI-1640 medium containing 10% fetal bovine serum (FBS). Cells were cultured at 37° C. in a 5% CO2 incubator.
Cell inoculation method to establish tumor SCID mouse subcutaneous transplantation model: tumor cells in logarithmic growth phase were collected, counted and resuspended in RPMI-1640 medium. Matrigel was added at 1:1, and the concentration of cell suspension was adjusted to 4×10^7 cells/ml. Inoculate tumor cells subcutaneously on the right back of SCID mice with a 1 ml syringe, 4×10^6 cells/0.1 ml/mouse
When the average volume of animal tumors is about 140 mm^3, animals with too large tumor, too small tumor, or have irregular tumor shapes were eliminated. The tumor-bearing mice with tumor volumes ranging from 101.34 to 209.86 mm 3 were selected, and were divided into groups by random block method, respectively as model group, compound group (oral 100 mg/kg, twice a day), 7 mice in each group. The day of grouping was Day 0, and administration was started according to the body weight of the animals.
After 14 days of administration, the tumor volume was measured, and the tumor inhibition rate was calculated, and the calculation formula was as follows: Tumor inhibition rate=[1−(Day14 tumor volume−Day0 administration tumor volume)/Day0 administration tumor volume]*100%

BTK protein = biological target: T2, BTK protein (Homo sapiens, UniProt Q06187); assay: Western blot assay for degradation of BTK protein in Jeko-1 cells; format: cell-based; settings: 24 hours of drug treatment, GAPDH internal reference
T2 construct: endogenous in cells; host or cells: Jeko-1
T2 sequence (Q06187 whole entry): as the sequence (Q06187 whole entry C481S) above, with S481C counted along it
Description: as §1, with “Jeko-1” for “TMD8 (BTK-C481S) mutant”
as §2

[3] = Sample-01, read-out: Papp Sample-01
[4] = Sample-02, read-out: Papp Sample-02
[5] = mean of two samples, read-out: Papp Mean
[6] = TMD8 (BTK-C481S) mutant cells, 72h, CCK-8, read-out: IC50

| Papp A→B at 90 min [2, 3] [×10⁻⁶ cm/s] | Papp A→B at 90 min [2, 4] [×10⁻⁶ cm/s] | Papp A→B at 90 min [2, 5] [×10⁻⁶ cm/s] | Papp B→A at 90 min [2, 3] [×10⁻⁶ cm/s] | Papp B→A at 90 min [2, 4] [×10⁻⁶ cm/s] | Papp B→A at 90 min [2, 5] [×10⁻⁶ cm/s] | efflux ratio at 90 min [2] | DC50 (BTK-C481S mutant protein) [nM] | DC50 (BTK protein) [nM] | Compound | IC50 ([1]; TMD8, 72 h) [nM] | Tumor inhibition rate (OCI-LY10 tumor) [%] | IC50 [1, 6] [nM] |
| --- | --- | --- | --- | --- | --- | --- | --- | --- | --- | --- | --- | --- |
|  |  |  |  |  |  |  |  |  | C=CC(=O)N1CCC[C@@H](n2nc(-c3ccc(Oc4ccccc4)cc3)c3c(N)ncnc32)C1 [Ibrutinib] | 125 |  |  |
| 2.14 | 2.16 | 2.15 | 33.5 | 34.8 | 34.1 | 15.9 |  |  | Nc1ncnc2c1c(-c1ccc(Oc3ccccc3)cc1)nn2C1CCN(CCOCCOCCNc2ccc3c(c2)C(=O)N(C2CCC(=O)NC2=O)C3=O)CC1 (centres unmarked) [Control compound 3] |  |  |  |
| 1.02 | 1 | 1.01 | 18.1 | 18.6 | 18.4 | 18.1 |  |  | Nc1ncnc2c1c(-c1ccc(Oc3ccccc3)cc1)nn2C1CCCN(CCOCCOCCOCCOCCNc2cccc3c2C(=O)N(C2CCC(=O)NC2=O)C3=O)C1 (centres unmarked) [Control compound 2] |  |  |  |
| 5.55 | 5.16 | 5.35 | 7.18 | 6.99 | 7.09 | 1.32 | 9.9 | 2.3 | Nc1ncnc2c1c(-c1ccc(Oc3ccccc3)cc1)nn2C1CCN(CCCCCOCCOc2ccc3c(c2)CN(C2CCC(=O)NC2=O)C3=O)CC1 (centres unmarked) [Compound 1] |  | 175 | 7.1 |
| 2.37 | 2.26 | 2.32 | 2.73 | 2.75 | 2.74 | 1.18 | 3.1 | 1.5 | Nc1ncnc2c1c(-c1ccc(Oc3ccccc3)cc1)nn2C1CCN(CCOCCCCCOc2ccc3c(c2)CN(C2CCC(=O)NC2=O)C3=O)CC1 (centres unmarked) [Compound 2] |  | 189 | 17.7 |
| 1.07 | 1.04 | 1.05 | 30.2 | 39.4 | 34.8 | 33 |  |  | Nc1ncnc2c1c(-c1ccc(Oc3ccccc3)cc1)nn2C1CCN(CCOCCOCCNc2ccc3c(c2)CN(C2CCC(=O)NC2=O)C3=O)CC1 (centres unmarked) [Control compound 1] |  |  |  |
